# US8556817B2, “Non-invasive methods for determining the cardiovascular status of an individual” (priority 2005, dated 2013)
# Marks after values point to notes of the source that are not given here.
# Columns and labels:
# [1] = Carotid artery wall layer thickness by non-invasive high-frequency ultrasound, postmenopausal estrogen users vs age-matched nonusers; assay type: in vivo, women
# Method: Any artery within the focus depth of the selected measuring equipment that can give information of the separate thicknesses of the artery intima layer and optionally the artery media layer may be used. In one embodiment, the thickness of the artery intima layer and optionally the artery media layer is measured in a superficial artery. Examples of superficial arteries include, but are not limited to, carotid, femoral, radialis, cubital, temporal, popliteal, or dorsalis pedis arteries. Depending on the artery which is selected for measurement, one skilled in the art will appreciate the various non-invasive locations on the individual in which the artery layer thickness may be measured. In one embodiment, the artery is a carotid artery and is examined in front of the sternocleidomastoid muscle, with the individual in the sitting position.
# Before beginning the ultrasound imaging, individuals rest quietly for at least 15 minutes. Carotid total wall thickness and the thickness of the individual artery layers are assessed noninvasively using high-resolution ultrasonographic equipment (Osteoson® Minhorst GmbH, Meudt, Germany), fitted with a broad-banded probe with 25 MHz center frequency. The method is validated for the estimation of total artery wall thickness and media layer thickness in non-atherosclerotic superficial arteries in pigs. Briefly, the scan converter enables the image to be frozen at a selected scan-time (2 sec) and the unit permits two-dimensional data acquisition, presenting the results as scans A and B. About 128 lines of echo data are detected as an A-echo signal, sampled by an eight-bit analog-to-digital converter, converted by scanning to a rectangular format and viewed as B-mode images on a 32-colour scale monitor. Image resolution as defined by the product manual is approximately 0.07 mm axially along the ultrasonographic beam and the depth of focus is in the range of 13.5 to 14.5 mm in front of the tip of the probe. The system recognizes objects of about 0.015 mm in size, and the software-driven cursors permit a minimal digital display of 0.02 mm.
# The left common carotid artery (LCCA) is examined at the point of the strongest pulse, in front of the sternocleidomastoid muscle, with the individuals sitting in an upright position and looking straight ahead. The three-layer image show the pulsating artery near wall and the artery lumen. Ten B scans (point estimates) are carried out and measurements of the thickness of the whole arterial wall and its layers are performed off-line. Means of the ten measurements are calculated and used in the analysis. The total thickness of the carotid wall is measured from the leading edge of the adventitia to the far edge of the intima. Measurements of the adventitia and intima are made using only the brightest echoes from leading edge to far edge, and the thickness of the media layer is measured as the distance between the two brightest echoes. The coefficient of variation (CV %), calculated from double estimates (based on the mean of 5 measurements each) in 20 subjects, is about 2.4% for total carotid wall thickness, about 4.2% for media thickness and about 8% for intima thickness. The values for artery wall layer given in this study are mean values based on 10 or more measurements. All ultrasonographic assessments are performed by the same investigator, who is blinded to the clinical data of the study subjects.
# [2] = Femoral artery wall layer thickness by non-invasive high-frequency ultrasound, postmenopausal estrogen users vs age-matched nonusers; assay type: in vivo, women
# [3] = estrogen users vs age-matched nonusers
# [4] = estrogen users vs age-matched nonusers, pair-wise
# [5] = postmenopausal estrogen users (n = 17), mean ± SD
substance,measurement,setting,value
Estrogen,"Intima thickness, % difference",[1]; [3],−25%
same,"Intima/Media ratio, % difference",[1]; [3],−54%
same,"Media thickness, % difference",[1]; [3],+74%
same,"Thickness of Intima + Media, % difference",[1]; [3],+43%
same,"Total wall thickness, % difference",[1]; [3],+35%
same,"Intima thickness, Mean difference ± SD",[1]; [4],−0.033 ± 0.04 mm
same,"Intima/Media ratio, Mean difference ± SD",[1]; [4],−0.25 ± 0.15
same,"Media thickness, Mean difference ± SD",[1]; [4],0.26 ± 0.22 mm
same,"Thickness of Intima + Media, Mean difference ± SD",[1]; [4],0.22 ± 0.23 mm
same,"Total wall thickness, Mean difference ± SD",[1]; [4],0.23 ± 0.23 mm
same,Intima thickness,[1]; [5],0.12 ± 0.02 mm
same,Intima/Media ratio,[1]; [5],0.21 ± 0.0629^a
same,Media thickness,[1]; [5],0.61 ± 0.19 mm
same,Thickness of Intima + Media,[1]; [5],0.73 ± 0.19 mm
same,Total wall thickness,[1]; [5],0.84 ± 0.19 mm
same,"Intima thickness, % difference",[2]; [3],−23%
same,"Intima/Media ratio, % difference",[2]; [3],−50%
same,"Media thickness, % difference",[2]; [3],+51%
same,"Thickness of Intima + Media, % difference",[2]; [3],+38%
same,"Total wall thickness, % difference",[2]; [3],+25%
same,"Intima thickness, Mean difference ± SD",[2]; [4],−0.030 ± 0.04 mm
same,"Intima/Media ratio, Mean difference ± SD",[2]; [4],−0.14 ± 0.13
same,"Media thickness, Mean difference ± SD",[2]; [4],0.27 ± 0.30 mm
same,"Thickness of Intima + Media, Mean difference ± SD",[2]; [4],0.24 ± 0.33 mm
same,"Total wall thickness, Mean difference ± SD",[2]; [4],0.18 ± 0.40 mm
same,Intima thickness,[2]; [5],0.095 ± 0.02 mm
same,Intima/Media ratio,[2]; [5],0.14 ± 0.06^0.055
same,Media thickness,[2]; [5],0.77 ± 0.29^a mm
same,Thickness of Intima + Media,[2]; [5],0.87 ± 0.30^a mm
same,Total wall thickness,[2]; [5],0.91 ± 0.37^b mm
